According to patent US20200288710A1, “SUBSTITUTED SULPHONAMIDES FOR CONTROLLING ANIMAL PESTS” (BAYER CROPSCIENCE AKTIENGESELLSCHAFT, priority 2016, published 2020):

Key:
Format in all cases: in vivo
[1] = tested on: Lucilia cuprina; test: Lucilia cuprina test; conditions: 48 h, L1 larvae, after 2 days, read-out: efficacy (kill in %)
Protocol: Lucilia cuprina Test Solvent: dimethyl sulphoxide To produce a suitable preparation of active compound, 10 mg of active compound are mixed with 0.5 ml of dimethyl sulphoxide, and the concentrate is diluted with water to the desired concentration. About 20 L1 larvae of the Australian sheep blowfly (Lucilia cuprina) are transferred into a test vessel containing minced horsemeat and the active compound preparation of the desired concentration. After 2 days, the kill in % is determined. 100% means that all the larvae have been killed; 0% means that no larvae have been killed.

[2] = tested on: Meloidogyne incognita; test: Meloidogyne incognita test; conditions: 336 h, lettuce, after 14 days, read-out: nematicidal efficacy (formation of galls)
Procedure, shortened: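 Gall formation on lettuce roots scored after 14 days: 0% means gall count equals untreated control, 100% means none. Sand vessels held the compound (acetone concentrate diluted in water), southern root-knot nematode egg/larvae suspension and lettuce seeds.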

[3] = tested on: Myzus persicae; test: Myzus persicae spray test (Chinese cabbage leaf discs); conditions: foliar, 120 h, 500 g/ha, after 5-6 days, read-out: efficacy
Procedure, shortened: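 Formulated compound in acetone/dimethylformamide, diluted in water with 1000 ppm emulsifier, was sprayed onto Brassica pekinensis leaf discs carrying mixed-stage Myzus persicae. Percent mortality was read 5-6 days later (0% = no aphids killed, 100% = all killed).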

[4] = tested on: Phaedon cochleariae; test: Phaedon cochleariae spray test; conditions: foliar, 168 h, Chinese cabbage leaf discs, larvae, after 7 days, read-out: efficacy
Procedure, shortened: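 Mortality of beetle larvae scored at day 7, expressed as % (0% none killed, 100% all). Formulation: compound in solvent, made up and further diluted with emulsifier-containing water (1000 ppm emulsifier).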

[5] = tested on: Myzus persicae; test: Myzus persicae oral test; conditions: 120 h, 20 ppm, oral uptake, after 5 days, read-out: efficacy
Procedure, shortened: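 Aphids of mixed ages imbibe, through parafilm, compound solution (acetone stock, water-diluted) combined with sugar-supplemented IPL41 medium to 200 μl. Efficacy read at day 5 as percent killed, 0% meaning no deaths.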

[6] = tested on: Tetranychus urticae; test: Tetranychus urticae spray test, OP-resistant; conditions: foliar, 144 h, bean leaf discs, after 6 days, read-out: efficacy
Protocol: Tetranychus urticae—Spray Test, OP-Resistant
To produce a suitable preparation of active compound, 1 part by weight of active compound is dissolved using the specified parts by weight of solvent and made up with water containing an emulsifier concentration of 1000 ppm until the desired concentration is attained. To produce further test concentrations, the formulation is diluted with emulsifier-containing water.
Discs of bean leaves (Phaseolus vulgaris) infested with all stages of the greenhouse red spider mite (Tetranychus urticae) are sprayed with an active compound preparation of the desired concentration.
After 6 days, the efficacy in % is determined. 100% means that all the spider mites have been killed; 0% means that no spider mites have been killed.

SMILES | pest or weed control at 100 ppm [1] | pest or weed control at 20 ppm [2] | pest or weed control at 500 g/ha [3] | pest or weed control at 500 g/ha [4] | pest or weed control at 20 ppm [5] | pest or weed control at 500 g/ha [6]
COc1ccc(C)c(S(=O)(=O)NC(=O)c2cn(C)c(-c3c(F)cccc3F)n2)c1 [Example 401] | 100% | 90% | 100% | 100% | 100% | –
Cn1cc(C(=O)NS(=O)(=O)c2ccccc2Cl)nc1-c1cnccc1Cl [Example 495] | – | 90% | – | – | – | 90%
Cn1cc(C(=O)NS(=O)(=O)c2c(Cl)cccc2Cl)nc1-c1c(F)cccc1Cl [Example 108] | 95% | 90% | 100% | 100% | 100% | –
Cc1cccc(C)c1S(=O)(=O)NC(=O)c1cn(C)c(-c2cccc(Cl)c2Cl)n1 [Example 558] | 100% | 90% | 90% | 100% | 100% | –
COc1ccc(Br)cc1S(=O)(=O)NC(=O)c1cn(C)c(-c2c(F)cccc2F)n1 [Example 18] | 100% | 90% | 100% | 100% | 100% | –
Cc1cc(C(=O)NS(=O)(=O)c2ccccc2Cl)nn1-c1ccccc1C(F)(F)F [Example 291] | – | 90% | – | – | – | 90%
Cc1ccccc1S(=O)(=O)NC(=O)c1cn(C)c(-c2c(F)cccc2F)n1 [Example 27] | 100% | 90% | 100% | 100% | 100% | –
CSc1ccccc1S(=O)(=O)NC(=O)c1cn(C)c(-c2c(F)cccc2F)n1 [Example 383] | 100% | – | 100% | 100% | 100% | –
Cc1ccccc1-c1nc(C(=O)NS(=O)(=O)CC(F)(F)F)cn1C [Example 87] | – | – | 100% | – | – | 90%
COc1ccc(Cl)c(S(=O)(=O)NC(=O)c2nc(-c3c(F)cccc3F)nn2C)c1 [Example 406] | – | 90% | – | – | – | 90%
Cc1ccsc1S(=O)(=O)NC(=O)c1cn(C)c(-c2ncccc2F)n1 [Example 573] | – | – | 90% | – | 100% | 90%
Cc1ccccc1S(=O)(=O)NC(=O)c1cc(C)n(-c2ncccc2Cl)n1 [Example 274] | 95% | 90% | 100% | – | 100% | –
CCc1cc(Br)ccc1S(=O)(=O)NC(=O)c1cn(C)c(-c2c(F)cccc2F)n1 [Example 341] | 100% | 100% | 90% | 100% | 100% | –
Cn1cc(C(=O)NS(=O)(=O)c2ccccc2C(F)(F)F)nc1-c1c(F)cccc1Cl [Example 109] | 100% | 90% | 100% | – | 100% | –
Cc1ccccc1S(=O)(=O)NC(=O)c1cn(C)c(-c2ccccc2Cl)n1 [Example 54] | 100% | 100% | 100% | – | 100% | –
Cn1cc(C(=O)NS(=O)(=O)c2ccccc2C(F)(F)F)nc1-c1c(Cl)cccc1Cl [Example 23] | 100% | – | 100% | 100% | 100% | –
Cc1cccc(C)c1S(=O)(=O)NC(=O)c1cn(C)c(-c2ccccc2Cl)n1 [Example 218] | 100% | 90% | 100% | 100% | 100% | –
Cc1cc(C(=O)NS(=O)(=O)c2cc(Cl)ccc2Br)nn1-c1ccccc1C(F)(F)F [Example 293] | – | 90% | – | – | – | 100%
